In EP3748362A1, “IN VITRO METHOD FOR DETECTING RENAL DISEASE” (Fundacion Instituto De Investigacion Sanitaria Fundacion …, priority 2019, dated 2020):

Columns and labels:
[1] = tested on: NF-κB1; assay: Canonical NF-κB1 activation, folic acid-induced renal injury in mice; assay type: in vivo; conditions: folic acid 300 mg/kg model; paricalcitol 25 µg/kg/day i.p.
Experimental: (§1) All animal procedures were performed according to the guidelines of animal research in the European Community and with prior approval by the Ethics Committee of the Health Research of the IIS-Fundacion Jiménez Díaz. For in vivo studies, mice received a daily intraperitoneal injection of the VDRA Paricalcitol starting 48 hours prior to induction of kidney damage.
(§2) At the time of sacrifice, animals were anesthetized with 5 mg/kg xylazine (Rompun, Bayer AG) and 35 mg/kg ketamine (Ketolar, Pfizer) and the kidneys perfused in situ with cold saline before removal. Then, kidney portions were fixed in formalin buffer for immunohistochemistry studies or immediately frozen in liquid nitrogen for gene and protein studies.
Folic acid nephropathy is a classical model of kidney tubulointerstitial injury and inflammation that has been reported in humans. Mice received a single intraperitoneal injection of folic acid (Sigma) 300 mg/kg in 0.3 mol/l sodium bicarbonate or vehicle, and were sacrificed 48 hours later. […]
(§3) For western blot, cell (25 µg/lane) and kidney (100-150 µg/lane) protein extracts were separated on 6%-12% polyacrylamide-SDS gels under reducing conditions. […] Autoradiographs were scanned using the Gel Doc™ EZ imager and analyzed with the Image Lab 3.0 software (BioRad).

[2] = tested on: NF-κB1; assay: Canonical NF-κB1 activation in obstructed kidneys (UUO) in mice; assay type: in vivo; conditions: paricalcitol-treated obstructed kidneys (UUO); 750 ng/kg/day
Experimental: as §1, §2
Unilateral ureteral obstruction (UUO) was established in male C57BL/6 mice, under isoflurane-induced anesthesia. […]
as §3

[3] = tested on: renal inflammation in experimental Unilateral Ureteral Obstruction (UUO); assay: Renal inflammation in unilateral ureteral obstruction (UUO) in mice; assay type: in vivo, C57BL/6 mice; conditions: obstructed kidneys (UUO), paricalcitol 750 ng/kg/day
Experimental: as §1
At the time of sacrifice, animals were anesthetized with 5 mg/kg xylazine (Rompun, Bayer AG) and 35 mg/kg ketamine (Ketolar, Pfizer) and the kidneys perfused in situ with cold saline before removal. […]
Paraffin-embedded kidney sections (3 µm) were stained using conventional methods. […] For each sample (processed by duplicate in a blinded manner), the average value was obtained from the analysis of 4 fields (20X objective) as density/mm2 or percentage stained area vs total analyzed area. Data are expressed as fold increase over control mice, as mean ± SEM of 8-10 animals per group. […]
Total RNA was isolated from cells and mouse kidney samples with Trizol (Invitrogen). […] The mRNA copy numbers were calculated for each sample by the instrument software using Ct value. Results are expressed in copy numbers, calculated relative to unstimulated cells or control mice, after normalization against 18S.

[4] = tested on: NF-κB2; assay: NF-κB2 activation (p52 western blot) in MARSS gene silenced HK2 cells stimulated with TWEAK; assay type: cell-based, Human; conditions: paricalcitol 15 µmol/L 48 hours, TWEAK 100 ng/ml
Experimental: Human kidney proximal tubule epithelial cells (HK2 cell line, ATCC CRL-2190) were grown in RPMI 1640 with 10% fetal bovine serum (FBS), 1% glutamine, 100 U/ml penicillin, 100 µg/ml streptomycin, 5 µg/ml insulin-transferrin-selenite and 36 ng/ml hydrocortisone in 5% CO2 at 37° C. When cells reached 60 to 70% confluence, they were serum-depleted for 24 hours before the experiment.
Cells were stimulated with 100ng/ml recombinant human soluble TWEAK (Millipore) or p-200 µg/ml cresyl-sulfate (Raymond Vanholder and Griet Glorieux, University of Gent, Belgium). Concentrations of TWEAK and p-cresyl-sulfate were based on previously published dose-response experiments (Poveda et al. 2014; Sanz et al. 2008). […] DMSO, used as a solvent in some cases, had no effect on cell viability or on gene expression levels.
For western blot, cell (25 µg/lane) and kidney (100-150 µg/lane) protein extracts were separated on 6%-12% polyacrylamide-SDS gels under reducing conditions. […] Autoradiographs were scanned using the Gel Doc™ EZ imager and analyzed with the Image Lab 3.0 software (BioRad). […]

NF-κB1 activation, evaluated by IκB-α phosphorylation and p65/NF-κB DNA binding activity [2]: not modified
Compound: C[C@H](/C=C/[C@H](C)C(C)(C)O)[C@H]1CC[C@H]2/C(=C/C=C3C[C@@H](O)C[C@H](O)C3)CCC[C@]12C [paricalcitol]
NF-κB1 activation, evaluated by IκB-α phosphorylation [1]: not modified | inflammatory cell infiltration ([3]; 5 days after UUO): prevented | increased expression of proinflammatory factors, such as CCL2, CCL5, IL6 ([3]; real time PCR): prevented | TWEAK-induced NF-κB2 activation [4]: diminished
